Experimental data from patent US7687079B2, “Methods of treating ileus” (priority 2002, dated 2010).

Columns and labels:
IL-6 mRNA = IL-6 mRNA expression in muscularis externae of intestinal grafts; format: in vivo, rat
Procedure: (§1) To investigate the sequential analysis of cytokine mRNA expression in the mucosa and muscularis, RNase protection assay was performed with the Riboquant™ kit (Pharmingen) according to the protocol of the manufacturer. […] Quantification of radioactivity of mRNA bands was performed with NIH Image, normalized to GAPDH, and expressed as a ratio of cytokine /GAPDH (n=3-4).
(§2) The effects of inhalation of CO on transplant-induced pro-inflammatory and anti-inflammatory gene expression was assessed in muscularis extracts by RT-PCR. […] Equal aliquots (5 μg) of total RNA from each sample were quantified by spectrophotometry (wavelength […]) and aliquoted at a concentration of 40 ng/μl. Peak mRNA expression was quantified in duplicate by SYBR Green two-step, real-time RT-PCR. […] Real-time PCR data were plotted as the ΔRn, fluorescence signal versus the cycle number. […] Quantification of mRNA expression was normalized to GAPDH and calculated relative to control using the comparative CT method (Schmittgen et al., J. Biochem. Biophys. Methods 46(1-2):69-8 (2000)). […]

IL-1β mRNA = IL-1β mRNA expression in muscularis externae of intestinal grafts; format: in vivo, rat
Procedure: as §1, §2

HO-1 mRNA = assay: Example 3 HO-1 mRNA by SYBR green real time RT-PCR; format: in vivo, mouse; conditions: IM-CO mice
Procedure: Ileus was induced in mice by gentle manipulation of the small intestine. An incision was made to expose the abdominal cavity of the mouse, and bowel manipulation was performed by gentle poking and prodding of the small intestine (see, e.g., Schwarz et al., Gastroenterology 121(6):1354-1357 (2001)). […] Mice were exposed to CO by inhalation (250 and 500 ppm) for 1 hour immediately prior to intestinal manipulation and during the entire 24-hour recovery period. Intestinal contractility was assessed in vitro by measuring circular muscle strip contractions in response to bethanechol (0.3-300 μM) and in vivo by determining intestinal transit from the distribution of orally-fed, fluorescein-labeled dextran and calculating geometric center as described in Example 1 above. HO-1 and IL-10 mRNA expression were determined by SYBR green real time RT-PCR from extracts of muscularis extemae, as described in Example 1 above. Release of nitric oxide (NO), a potent inhibitor of smooth muscle contractility, was estimated by measuring serum total nitrite, also described in Example 1 above.

Q: What does the source list for `[C-]#[O+]` [CO, carbon monoxide]?
A: IL-6 mRNA (IL-6 mRNA; SITx + CO, Table 2): 22.3 ± 1.8 % GAPDH; reduction of mean relative IL-6 mRNA expression (IL-6 mRNA; SITx recipients treated with CO vs SITx, 4 hours after reperfusion, p=0.084): 40%; IL-1β mRNA (IL-1β mRNA; SITx + CO, Table 2): 6.6 + 0.1 % GAPDH; reduction of mean relative IL-1β mRNA expression (IL-1β mRNA; SITx recipients treated with CO vs SITx, 4 hours after reperfusion, p=0.046): 50%; HO-1 expression versus controls (HO-1 mRNA): 150 fold; HO-1 increase in expression over IM alone (HO-1 mRNA; early induction): 300%
